Measured values from US8241845B2, “Steroid 5α-reductase” (Health Research Inc., priority 2005, dated 2012).

B1: SRD5AIII: novel steroid 5α-reductase isozyme, 318 amino acids, SEQ ID NO:2 (protein)
chain: MAPWAEAEHSALNPLRAVWLTLTAAFLLTLLLQLLPPGLLPGCAIFQDLIRYGKTKCGEPSRPAACRAFDVPKRYFSHFYIISVLWNGFLLWCLTQSLFLGAPFPSWLHGLLRILGAAQFQGGELALSAFLVLVFLWLHSLRRLFECLYVSVFSNVMIHVVQYCFGLVYYVLVGLTVLSQVPMDGRNAYITGKNLLMQARWFHILGMMMFIWSSAHQYKCHVILGNLRKNKAGVVIHCNHRIPFGDWFEYVSSPNYLAELMIYVSMAVTFGFHNLTWWLVVTNVFFNQALSAFLSHQFYKSKFVSYPKHRKAFLPFLF
modifications: human

Legend:
[1] = system: prostate cancer (CaP); details: Thompson et al. 2003; cited from earlier work
[2] = system: SRD5A; details: cited from earlier work
[3] = system: prostate cancer (CaP); assay: Treatment of men with prostate cancer (CaP) with SRD5A inhibitors; format: in vivo, human; details: patients at Roswell Park Cancer Institute
[4] = target: T1, SRD5AIII (Homo sapiens, UniProt Q9H8P0); assay: Recombinant SRD5AIII in vitro assay (conversion of T to DHT, TLC); format: biochemical
T1 construct: expressed in transfected cells; host or cells: CV-1 (monkey kidney) cells infected with Ad-SRD5AIII; cell-free homogenate
T1 sequence (Q9H8P0 1-318): B1 chain
Experimental: Recombinant SRD5AIII in vitro assays. Ad-SRD5AIII infected CV-1 cells and uninfected CV-1 control cells were prepared and assayed for SRD5AIII using methods of Titus et al. (Titus et al. Clin Cancer Res 2005; 11:4365-4371) and Pratis et al. (Pratis et al. J Steroid Biochem Mol Biol 2000; 75:75-82). All steps prior to incubation were carried out at 4° C. SRD5AIII specific activity was expressed in pmol/mg protein/hr using Ad-SRD5AIII infected CV-1 cells.
Ad-SRD5AIII infected CV-1 cells or uninfected CV-1 cells were homogenized in 0.5 ml ice-cold homogenization buffer (50 mM potassium phosphate [pH 7.4], 0.25M sucrose, 1 mM EDTA, 1 mM dithiothreitol, 1 mM fresh phenylmethylsulfonyl chloride, 1× Complete™ protease inhibitor [Roche, Indianapolis, Ind.] using a PowerGen 125 (Fischer Scientific) for two 10-second bursts and sonicated (Branson Sonifier CD200, SmilthKine) at 20% power for 15 one-second bursts. Final homogenates were centrifuged at 500×g for 1 min to remove particulate. The resulting cell free supernatants were placed on ice and used immediately. Protein concentrations were measured using the procedure of Lowry et al. (Lowry et al. J Biol Chem 1951; 193:265-75).
The buffer for all incubations contained 100 mM Tris-citrate, 0.5 mM dithiothreitol, 0.5 mM NADPH and 1 μCi ^3H-testosterone (New England Nuclear, Boston, Mass.). […] Incubations were performed in total volume 250 μl at pH 7.0 and pH 5.0. […]
The conversion of T to dihydrotestosterone (DHT), androstanedione and androsterone was analyzed using thin layer chromatography (TLC, 33). […] Control incubations were analyzed as described above.
The amount of radioactive DHT, androstanedione and androsterone was calculated as percent total radioactivity (^3H) recovered from the thin layer chromatography lane. […]
Anti-6X-His and anti-X-press antibodies were used to evaluate the expression level of 6X-His and X-press-tagged SRD5AIII in infected CV1 cells. […] However, the molecular weight of the detected band was higher than the expected SRD5AIII molecular weight of about 37 kDa. […]

Molecule	Efficacy as treatment for CaP [1]	Inhibition of SRD5A activity [2]	Response in patients, early results [3]	pH optimum [4]	SRD5AIII enzyme activity ([4]; pH 5.0, 1 μM T substrate, n=1)	SRD5AIII specific activity after subtracting background activity ([4]; pH 7.0, 5 μM T substrate, n=3, Ad-SRD5AIII infected CV-1 cell homogenate)
CC(C)(C)NC(=O)[C@H]1CC[C@H]2[C@@H]3CC[C@H]4NC(=O)C=C[C@]4(C)[C@H]3CC[C@]12C [finasteride]	Lack of efficacy	neither finasteride nor dutasteride inhibits SRD5A activity completely				
C[C@]12C=CC(=O)N[C@@H]1CC[C@@H]1[C@@H]2CC[C@]2(C)[C@@H](C(=O)Nc3cc(C(F)(F)F)ccc3C(F)(F)F)CC[C@@H]12 [dutasteride, Dutasteride]		neither finasteride nor dutasteride inhibits SRD5A activity completely	incomplete remission			
B1				~7.0	not detected	15.6 pmol/mg protein/hour
